Our source for the Activity values is ChEMBL document CHEMBL1146664, “Cytochrome P450/NADPH-dependent formation of trans epoxides from trans-arachidonic acids” (Bioorg Med Chem Lett, 2004).

This data set in a line: Level reaching in blood plasma of rat or human was determined. The class given is ADME, cell-free.

`CCCCC/C=C/CC(O)C(O)C/C=C\C/C=C\CCCC(=O)O` (trans isomer): the Activity was determined as 0.5 µM. For `CCCCC/C=C/C/C=C\C/C=C\C/C=C\CCCC(=O)O`, the Activity worked out at 0.5 µM.

In the case of `CCCCC/C=C/CC1OC1C/C=C\C/C=C\CCCC(=O)O` (stereo not given), the Activity turned out to be 0.5 µM. Compound `CCCCCC1OC1C/C=C\C/C=C\C/C=C\CCCC(=O)O` (trans isomer) displayed an Activity of 0.5 µM. `CCCCCC(O)C(O)C/C=C\C/C=C\C/C=C\CCCC(=O)O` (stereo not given) showed an Activity of 0.5 µM.
